Results reported in ChEMBL document CHEMBL1201862, “PubChem BioAssay data set” (2004).
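These data come from cells grown in 96-well plates and exposed to compound for 48 hours at five concentrations. GI50 = concentration required for 50% inhibition of growth.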 Active and inactive are the calls of the source. Cut-off read from the data, not from the text of the source: active = GI50 up to about 1.1 µM and inactive = higher. Peptide text beside a SMILES is read from it. * marks the point of attachment. OSu = O=C1CCC(=O)N1O*

Tests used:
Assay in all cases: NCI anticancer screen, dose series, 48 h
[1] = tested on: PC-3
[2] = tested on: CCRF-CEM
[3] = tested on: LOX IMVI
[4] = tested on: MCF7
[5] = tested on: M14
[6] = tested on: SR
[7] = tested on: EKVX
[8] = tested on: HT-29
[9] = tested on: HOP-62
[10] = tested on: OVCAR-5
[11] = tested on: TK-10
[12] = tested on: IGROV-1
[13] = tested on: RPMI-8226
[14] = tested on: MDA-MB-435
[15] = tested on: NCI-H522
[16] = tested on: OVCAR-4
[17] = tested on: NCI/ADR-RES
[18] = tested on: SNB-75
[19] = tested on: DU-145

Structure (SMILES)	GI50 [1]	GI50 [2]	GI50 [3]	GI50 [4]	GI50 [5]	GI50 [6]	GI50 [7]	GI50 [8]	GI50 [9]	GI50 [10]	GI50 [11]	GI50 [12]	GI50 [13]	GI50 [14]	GI50 [15]	GI50 [16]	GI50 [17]	GI50 [18]	GI50 [19]
CSC1=C(c2ccc(Cl)cc2)SC(N2CCCCC2)N1c1ccc([N+](=O)[O-])cc1 (stereo not given)	18.5 µM (inactive)	38.4 µM (inactive)	30.6 µM (inactive)	35.6 µM (inactive)	18.5 µM (inactive)	31.3 µM (inactive)	40.6 µM (inactive)	30.6 µM (inactive)	20 µM (inactive)	28 µM (inactive)	42.2 µM (inactive)	29.8 µM (inactive)	16.6 µM (inactive)	31.6 µM (inactive)	24.2 µM (inactive)	23.3 µM (inactive)	26.7 µM (inactive)	26.2 µM (inactive)	–
O=C(Nc1ccc(F)cc1)C(=O)C(C1OC(=O)c2ccccc21)[N+](=O)[O-] (stereo not given)	–	> 100 µM (inactive)	> 100 µM (inactive)	–	> 100 µM (inactive)	> 100 µM (inactive)	> 100 µM (inactive)	> 100 µM (inactive)	> 100 µM (inactive)	> 100 µM (inactive)	> 100 µM (inactive)	> 100 µM (inactive)	> 100 µM (inactive)	–	–	> 100 µM (inactive)	–	> 100 µM (inactive)	–
CCC(=O)N(O)C(C)(C)C	–	> 100 µM (inactive)	> 100 µM (inactive)	–	> 100 µM (inactive)	> 100 µM (inactive)	–	> 100 µM (inactive)	> 100 µM (inactive)	> 100 µM (inactive)	> 100 µM (inactive)	> 100 µM (inactive)	> 100 µM (inactive)	–	> 100 µM (inactive)	> 100 µM (inactive)	–	92.3 µM (inactive)	–
CN(C)C(=O)C(NCCO)c1ccccc1 (stereo not given)	89.1 µM (inactive)	–	> 100 µM (inactive)	> 100 µM (inactive)	> 100 µM (inactive)	–	> 100 µM (inactive)	57.7 µM (inactive)	> 100 µM (inactive)	> 100 µM (inactive)	> 100 µM (inactive)	72.6 µM (inactive)	27.9 µM (inactive)	79.4 µM (inactive)	> 100 µM (inactive)	> 100 µM (inactive)	–	> 100 µM (inactive)	> 100 µM (inactive)
c1ccc(CSCCc2ccncc2)cc1	> 100 µM (inactive)	> 100 µM (inactive)	> 100 µM (inactive)	> 100 µM (inactive)	> 100 µM (inactive)	–	67.9 µM (inactive)	> 100 µM (inactive)	> 100 µM (inactive)	> 100 µM (inactive)	> 100 µM (inactive)	> 100 µM (inactive)	49.9 µM (inactive)	> 100 µM (inactive)	69 µM (inactive)	44 µM (inactive)	> 100 µM (inactive)	–	> 100 µM (inactive)
CN1C2=C(CC3=C1CC(C)(C)CC3=O)C(=O)CC(C)(C)C2	> 100 µM (inactive)	> 100 µM (inactive)	> 100 µM (inactive)	> 100 µM (inactive)	> 100 µM (inactive)	> 100 µM (inactive)	> 100 µM (inactive)	> 100 µM (inactive)	–	> 100 µM (inactive)	> 100 µM (inactive)	> 100 µM (inactive)	> 100 µM (inactive)	–	–	> 100 µM (inactive)	> 100 µM (inactive)	> 100 µM (inactive)	–
C#CC1(OC(C)=O)CCC2C3CC=C4C=C(OC(C)=O)CCC4(C)C3CCC21C (stereo not given)	–	12.6 µM (inactive)	22.7 µM (inactive)	24.5 µM (inactive)	26.7 µM (inactive)	16.3 µM (inactive)	30.5 µM (inactive)	17.2 µM (inactive)	44.9 µM (inactive)	34.7 µM (inactive)	24.3 µM (inactive)	19.3 µM (inactive)	< 0.01 µM (active)	20.1 µM (inactive)	17.4 µM (inactive)	19.4 µM (inactive)	26.9 µM (inactive)	28.1 µM (inactive)	31.1 µM (inactive)
N#CC(NCCc1ccccc1)c1ccc(C(C#N)NCCc2ccccc2)cc1 (stereo not given)	> 100 µM (inactive)	17.9 µM (inactive)	45.1 µM (inactive)	55.5 µM (inactive)	70.6 µM (inactive)	–	> 100 µM (inactive)	49.2 µM (inactive)	–	> 100 µM (inactive)	> 100 µM (inactive)	> 100 µM (inactive)	–	33.8 µM (inactive)	> 100 µM (inactive)	> 100 µM (inactive)	24.3 µM (inactive)	–	> 100 µM (inactive)
N#Cc1c(N)nc(-c2ccc(Cl)cc2)c2c1-c1ccccc1S(=O)(=O)CC2	> 100 µM (inactive)	–	> 100 µM (inactive)	–	> 100 µM (inactive)	56.4 µM (inactive)	–	> 100 µM (inactive)	35.7 µM (inactive)	> 100 µM (inactive)	> 100 µM (inactive)	> 100 µM (inactive)	> 100 µM (inactive)	> 100 µM (inactive)	31 µM (inactive)	23.2 µM (inactive)	52.5 µM (inactive)	> 100 µM (inactive)	74.5 µM (inactive)
Fc1ccc(-c2sc(-c3cccs3)cc2Cc2cccs2)cc1	–	91 µM (inactive)	> 100 µM (inactive)	> 100 µM (inactive)	> 100 µM (inactive)	–	> 100 µM (inactive)	80.2 µM (inactive)	–	> 100 µM (inactive)	> 100 µM (inactive)	> 100 µM (inactive)	–	> 100 µM (inactive)	> 100 µM (inactive)	> 100 µM (inactive)	> 100 µM (inactive)	> 100 µM (inactive)	> 100 µM (inactive)
Oc1cc(CN2CCOCCOCCOCCOCC2)c(O)cc1CN1CCOCCOCCOCCOCC1	–	18.6 µM (inactive)	24.5 µM (inactive)	–	18.3 µM (inactive)	20.3 µM (inactive)	> 100 µM (inactive)	> 47.2 µM (inactive)	> 100 µM (inactive)	22.8 µM (inactive)	> 56.2 µM (inactive)	> 78 µM (inactive)	26.2 µM (inactive)	–	11.8 µM (inactive)	18.4 µM (inactive)	–	> 78.7 µM (inactive)	–
CC(=O)c1ccc2c(c1)oc(=O)n2CCN(C)C	> 100 µM (inactive)	> 100 µM (inactive)	> 100 µM (inactive)	> 100 µM (inactive)	> 100 µM (inactive)	> 100 µM (inactive)	> 100 µM (inactive)	93.8 µM (inactive)	> 100 µM (inactive)	> 100 µM (inactive)	> 100 µM (inactive)	32.1 µM (inactive)	–	> 100 µM (inactive)	–	–	> 100 µM (inactive)	21.7 µM (inactive)	–
CC(OC(C)(C)C)[C@H](NC(=O)OCc1ccccc1)C(=O)NC(OCc1ccccc1)[C@H]1COC(C)(C)O1 (stereo not given in full)	> 10 µM (inactive)	> 10 µM (inactive)	> 10 µM (inactive)	–	> 10 µM (inactive)	–	> 10 µM (inactive)	> 10 µM (inactive)	> 10 µM (inactive)	> 10 µM (inactive)	> 10 µM (inactive)	> 10 µM (inactive)	–	> 10 µM (inactive)	> 10 µM (inactive)	> 10 µM (inactive)	> 10 µM (inactive)	> 10 µM (inactive)	> 100 µM (inactive)
COC(=O)/C=C(/OC)[C@H](C)[C@H](/C=C/c1csc(-c2csc(C(C)C)n2)n1)OC	0.126 µM (active)	18.2 µM (inactive)	0.0838 µM (active)	0.178 µM (active)	1.44 µM (inactive)	0.0929 µM (active)	0.721 µM (active)	0.29 µM (active)	> 43.3 µM (inactive)	> 100 µM (inactive)	–	0.426 µM (active)	0.373 µM (active)	0.925 µM (active)	1.21 µM (inactive)	0.416 µM (active)	0.841 µM (active)	> 100 µM (inactive)	–
O=C1C=CC2(CCC23C=CC(=O)O3)O1 (stereo not given)	–	86.5 µM (inactive)	> 100 µM (inactive)	–	> 100 µM (inactive)	–	> 100 µM (inactive)	> 100 µM (inactive)	> 100 µM (inactive)	> 100 µM (inactive)	> 100 µM (inactive)	> 100 µM (inactive)	> 100 µM (inactive)	–	51.6 µM (inactive)	> 100 µM (inactive)	–	> 100 µM (inactive)	–
COC(=O)/C(=N\N)C(C(=O)C(=O)Nc1cc(Cl)ccc1Cl)c1nc2ccc([N+](=O)[O-])cc2nc1O (stereo not given)	> 100 µM (inactive)	> 100 µM (inactive)	> 100 µM (inactive)	> 100 µM (inactive)	> 100 µM (inactive)	–	72.9 µM (inactive)	> 100 µM (inactive)	> 100 µM (inactive)	> 100 µM (inactive)	> 100 µM (inactive)	50.1 µM (inactive)	> 100 µM (inactive)	> 100 µM (inactive)	> 100 µM (inactive)	> 100 µM (inactive)	> 100 µM (inactive)	> 100 µM (inactive)	–
NCCCCC(NC(=O)C(N)Cc1ccc(O)cc1)C(=O)NC(CCCCN)C(=O)NC(CCCCN)C(=O)ON1C(=O)CCC1=O (stereo not given) (H-YKKK-OSu; configuration not given here)	> 100 µM (inactive)	–	–	> 100 µM (inactive)	> 100 µM (inactive)	> 100 µM (inactive)	> 100 µM (inactive)	> 100 µM (inactive)	> 100 µM (inactive)	> 100 µM (inactive)	> 100 µM (inactive)	> 100 µM (inactive)	> 100 µM (inactive)	–	–	–	–	> 100 µM (inactive)	–
